PubChem BioAssay AID196 (DTP/NCI, 2004)
Several values for one entry are separate records, joined by “and”; a condition that tells them apart may be missing. Equal values may be shown once. Toxic doses and inconclusive results are not listed. The calls were made as follows: active = survival T/C of 150% or more; inactive = T/C below 125% in these data.

System: BDF1 mice, intracerebral B16 melanoma, median survival T/C
Assay: NCI In Vivo Anticancer Drug Screen. Data for tumor model B16 Melanoma (intracerebral) in B6D2F1 (BDF1) mice
Details: endpoint: median survival time, higher = longer survival
Procedure: The antitumor activity of compounds was measured in mice bearing transplantable tumors. Survival or tumor size were measured and the results are expressed as the measurement made in the treated group (T) divided by the measurement made in the vehicle treated control group (C). The tumor model used in this assay is B16 Melanoma (intracerebral) in B6D2F1 (BDF1) mice

Measured: T/C

c1ccc([C@H]2CN3CCSC3=N2)cc1
inactive: dose: 5.0 mg/kg/injection, schedule: Q01DX009 (ip), vehicle: saline 98 % of control and 105 % of control | dose: 10.0 mg/kg/injection, schedule: Q01DX005 (ip), vehicle: saline 120 % of control and 93 % of control | dose: 10.0 mg/kg/injection, schedule: Q01DX009 (ip), vehicle: saline 89 % of control and 94 % of control and 98 % of control | dose: 20.0 mg/kg/injection, schedule: Q01DX005 (ip), vehicle: saline 96 % of control and 112 % of control | dose: 20.0 mg/kg/injection, schedule: Q01DX009 (ip), vehicle: saline 87 % of control and 89 % of control and 98 % of control | dose: 40.0 mg/kg/injection, schedule: Q01DX005 (ip), vehicle: saline 93 % of control and 108 % of control | dose: 40.0 mg/kg/injection, schedule: Q01DX009 (ip), vehicle: saline 103 % of control

COC1=C(N2CC2)C(=O)C(OC)=C(N2CC2)C1=O
inactive: dose: 0.5 mg/kg/injection, schedule: Q01DX009 (ip), vehicle: saline 115 % of control | dose: 1.0 mg/kg/injection, schedule: Q01DX009 (ip), vehicle: saline 107 % of control | dose: 2.0 mg/kg/injection, schedule: Q01DX009 (ip), vehicle: saline 117 % of control | dose: 4.0 mg/kg/injection, schedule: Q01DX009 (ip), vehicle: saline 86 % of control

COc1cc(NS(C)(=O)=O)ccc1Nc1c2ccccc2nc2c(C)cccc12
inactive: dose: 5.0 mg/kg/injection, schedule: Q04DX003 (ip), vehicle: Klucel (hydroxypropylcellulose) (HPC) 88 % of control | dose: 5.0 mg/kg/injection, schedule: Q04DX003 (ip), vehicle: saline 108 % of control | dose: 10.0 mg/kg/injection, schedule: Q04DX003 (ip), vehicle: Klucel (hydroxypropylcellulose) (HPC) 91 % of control | dose: 10.0 mg/kg/injection, schedule: Q04DX003 (ip), vehicle: saline 100 % of control | dose: 20.0 mg/kg/injection, schedule: Q04DX003 (ip), vehicle: saline 116 % of control

CS(=O)(=O)Nc1ccc(Nc2c3ccccc3nc3cc([N+](=O)[O-])ccc23)cc1
inactive: dose: 25.0 mg/kg/injection, schedule: Q04DX003 (ip), vehicle: saline sonified 100 % of control | dose: 50.0 mg/kg/injection, schedule: Q04DX003 (ip), vehicle: saline sonified 95 % of control | dose: 75.0 mg/kg/injection, schedule: Q04DX003 (ip), vehicle: saline sonified 87 % of control

CC1CCC(NC(=O)N(CCCl)N=O)CC1 (stereo unspecified)
inactive: dose: 0.5 mg/kg/injection, schedule: Q01DX009 (ip), vehicle: Klucel (hydroxypropylcellulose) (HPC) 105 % of control | dose: 1.0 mg/kg/injection, schedule: Q01DX009 (ip), vehicle: Klucel (hydroxypropylcellulose) (HPC) 102 % of control | dose: 2.0 mg/kg/injection, schedule: Q01DX009 (ip), vehicle: Klucel (hydroxypropylcellulose) (HPC) 111 % of control | dose: 4.0 mg/kg/injection, schedule: Q01DX009 (ip), vehicle: Klucel (hydroxypropylcellulose) (HPC) 117 % of control | dose: 6.48 mg/kg/injection, schedule: Q01DX001 (ip), vehicle: other 106 % of control | dose: 10.8 mg/kg/injection, schedule: Q01DX001 (ip), vehicle: other 117 % of control | dose: 50.0 mg/kg/injection, schedule: Q01DX001 (ip), vehicle: other 118 % of control

CC/C(=C(/CC)c1ccc(O)cc1)c1ccc(O)cc1
inactive: dose: 8.0 mg/kg/injection, schedule: Q01DX009 (ip), vehicle: Klucel (hydroxypropylcellulose) (HPC) 106 % of control | dose: 16.0 mg/kg/injection, schedule: Q01DX005 (ip), vehicle: saline with Tween-80 100 % of control | dose: 16.0 mg/kg/injection, schedule: Q01DX009 (ip), vehicle: Klucel (hydroxypropylcellulose) (HPC) 102 % of control | dose: 32.0 mg/kg/injection, schedule: Q01DX005 (ip), vehicle: saline with Tween-80 99 % of control and 111 % of control | dose: 32.0 mg/kg/injection, schedule: Q01DX009 (ip), vehicle: Klucel (hydroxypropylcellulose) (HPC) 95 % of control | dose: 64.0 mg/kg/injection, schedule: Q01DX005 (ip), vehicle: saline with Tween-80 96 % of control and 103 % of control | dose: 64.0 mg/kg/injection, schedule: Q01DX009 (ip), vehicle: Klucel (hydroxypropylcellulose) (HPC) 106 % of control | dose: 128.0 mg/kg/injection, schedule: Q01DX005 (ip), vehicle: saline with Tween-80 88 % of control and 102 % of control | dose: 128.0 mg/kg/injection, schedule: Q01DX009 (ip), vehicle: Klucel (hydroxypropylcellulose) (HPC) 104 % of control | dose: 256.0 mg/kg/injection, schedule: Q01DX009 (ip), vehicle: Klucel (hydroxypropylcellulose) (HPC) 111 % of control
